Laboratory results reported in patent US10576057B2, “Methods for treating muscle wasting and degeneration diseases” (NEWTREE CO., LTD., priority 2015, dated 2020).

Assays:
[1] = test system: MyoD; test: MyoD mRNA expression by RT-PCR in L6 muscle cells; format: cell-based; conditions: 6 days
Procedure: Muscle cells, L6 myoblasts (ATCC) were added to a 6-well plate at 2×10^5 cells/ml together with DMEM (Hyclone) containing 10% FBS (Hyclone). When the cell density reached about 80 to 85%, the medium in the wells was removed. […] Meanwhile, a group treated with 0.01% DMSO instead of the sample was used as a control group. This procedure was carried out for 6 days in two days to differentiate and total RNA was isolated using TRIzol reagent (Invitrogen. Carlsbad, Calif., USA). The isolated total RNA was quantified using NanoDrop 1000 (Thermo Fisher Scientific Inc., MA, USA). Quantified 16 μL of RNA was synthesized into cDNA using Reverse Transcriptase Premix (ELPIS-Biotech) and PCR machine (Gene Amp PCR System 2700: Applied Biosystems, MA, USA) at 42° C. for 55 minutes and 70° C. for 15 minutes. 4 μL out of 16 μL cDNA was amplified by PCR using the following specific primers (Bioneer, Daejeon, Republic of Korea) and PCR premix (ELPIS-Biotech). PCR was performed by repeating 30 cycles of 95° C. for 30 seconds, 60° C. for 1 minute, and 72° C. for 1 minute.
PCR-amplified cDNA was separated by electrophoresis on 1.5% agarose gel and cDNA band was identified using G:BOX EF imaging system (Syngene).
L6 myoblast (ATCC) were cultured in the same manner as in Example 7. […]

[2] = test system: atrogin-1; test: atrogin-1 mRNA expression by RT-PCR in TNF-α-treated L6 muscle cells; format: cell-based; conditions: differentiated L6 muscle cells, 50 ng/mL TNF-α
Procedure: L6 myoblast (ATCC) was added to a 6-well plate at 2×10^5 cells/ml together with DMEM (Hyclone) containing 10% FBS (Hyclone). When the cell density reached about 80% to 85%, the medium in the wells was removed and myotube differentiation was induced by treating the cells with DMEM (Hyclone) containing 2% HS (Hyclone). The medium was replaced with fresh medium every two days and the differentiation was carried out for a total of 6 days. After differentiation, 0.1 μM and 1 μM of morusin prepared in Example 2-1 were respectively dissolved in DMEM (Hyclone) containing 50 ng/mL tumor necrosis factor alph (TNF-α; PeproTech, Rocky Hills, N.J., USA), followed by their treatment on the cells. After 6 hours, total RNA was isolated using TRIzol reagent (Invitrogen). The isolated total RNA was quantified using NanoDrop 1000 (Thermo Fisher Scientific Inc.). The quantified 16 μL of RNA was synthesized into cDNA using Reverse Transcriptase Premix (ELPIS-Biotech) and PCR machine (Gene Amp PCR System 2700: Applied Biosystems) at 42° C. for 55 minutes and at 70° C. for 15 minutes. The PCR was performed by repeating 30 cycles at 95° C. for 30 seconds, at 60° C. for 1 minute and at 72° C. for 1 minute with 4 μl of 16 μl cDNA, the following specific primers (Bioneer), and PCR premix (ELPIS-Biotech): […]

[3] = test system: Wistar rats; test: Muscle mass in TNF-α-induced muscular atrophy animal model; format: in vivo; conditions: for increase in weight of muscle: 300 mg/kg body weight, 8 weeks, vs control group, p<0.01; for Average calf muscle weight: TNF-α-induced atrophy, 300 mg/kg body weight once a day for 8 weeks, right calf
Procedure: Five-week-old Wistar rats were adapted for 1 week and 100 ng/g of TNF-α was supplied for 2 weeks to induce muscular atrophy. Then, groups were randomly assigned on the basis of body weight and divided into five groups of 8 rats per each group. 500 mg/kg body weight of the ethanol extract of Mori Cortex Radicis prepared in Example 1-2, 500 mg/kg body weight of the hot-water extract of Mori Cortex Radicis prepared in Example 1-5, 300 mg/kg body weight of the morusin prepared in Example 2-1, and 300 mg/kg body weight of the kuwanon G prepared in Example 2-2 were suspended in 0.25% carboxymethylcellulose, respectively, followed by their administration on experimental groups once a day for 8 weeks at regular time. A control group was administered with TNF-α suspended in the same amount of 0.25% carboxymethyl cellulose ingested by the experimental groups.
After 8 weeks of administration, the muscles under the right calf were excised and weighed with microbalance (Mettler PE 160, USA).

Structure (SMILES) | expression of MyoD mRNA ([1]; 1 μM and 5 μM) | mRNA expression of atrogin-1 ([2]; concentration not given) | increase in weight of muscle [3] [%] | Average calf muscle weight [3] [mg] | expression of MyoD mRNA ([1]; 0.1 and 1 μM) | mRNA expression of atrogin-1 ([2]; 0.1 μM and 1 μM, 6 hours)
CC(C)=CCc1c(-c2ccc(O)cc2O)oc2c([C@H]3C=C(C)C[C@@H](c4ccc(O)cc4O)[C@@H]3C(=O)c3ccc(O)cc3O)c(O)cc(O)c2c1=O [Kuwanon G, 8-[(1S,5R,6S)-6-(2,4-Dihydroxybenzoyl)-5-(2,4-dihydroxyphenyl)-3-methyl-2-cyclohexen-1-yl]-2-(2,4-dihydroxyphenyl)-5,7-dihydroxy-3-(3-methyl-2-buten-1-yl)-4H-chromen-4-one] | increased | decreased | 22.60 | 537 ± 15.2 |  | 
CC(C)=CCc1c(-c2ccc(O)cc2O)oc2c3c(cc(O)c2c1=O)OC(C)(C)C=C3 [Morusin, 2-(2,4-Dihydroxyphenyl)-5-hydroxy-8,8-dimethyl-3-(3-methyl-2-buten-1-yl)-4H,8H-benzo[1,2-b:3,4-b′]dipyran-4-one] |  |  | 23.97 | 543 ± 32.9 | increased | decreased
